Publication PMC10604324, “Implications for Combination Therapy of Selective Monoamine Reuptake Inhibitors on Dopamine Transporters” (Biomedicines, 2023)
Where “and” joins values, the source holds several entries; their conditions need not be identical. Equal values may be shown once. Read-outs that look alike come from different tables or passages of the source.

How the values were obtained:
human DAT = human DAT (Homo sapiens, UniProt Q01959); experiment: Fluorescence-based neurotransmitter uptake assay, HEK-hDAT cells; assay type: cell-based
DAT [1] = system: DAT; design: method as in PMID 10997723; conditions: effect of isethionate on mazindol binding; cited from earlier work
SERT = conditions: cited from earlier work
NET = conditions: cited from earlier work
DAT [2] = conditions: cited from earlier work
[3] = DAT inhibition by monovalent ions
[4] = read-out: Literature IC50, substrate uptake assay, ref A.J. Eshleman, et al., J Pharmacol Exp Ther 289 (1999) 877-885
[5] = read-out: Literature IC50, substrate uptake assay, ref M.J. Hansard, et al., J Pharmacol Exp Ther 303 (2002) 952-958

Chain of human DAT (Q01959 whole entry): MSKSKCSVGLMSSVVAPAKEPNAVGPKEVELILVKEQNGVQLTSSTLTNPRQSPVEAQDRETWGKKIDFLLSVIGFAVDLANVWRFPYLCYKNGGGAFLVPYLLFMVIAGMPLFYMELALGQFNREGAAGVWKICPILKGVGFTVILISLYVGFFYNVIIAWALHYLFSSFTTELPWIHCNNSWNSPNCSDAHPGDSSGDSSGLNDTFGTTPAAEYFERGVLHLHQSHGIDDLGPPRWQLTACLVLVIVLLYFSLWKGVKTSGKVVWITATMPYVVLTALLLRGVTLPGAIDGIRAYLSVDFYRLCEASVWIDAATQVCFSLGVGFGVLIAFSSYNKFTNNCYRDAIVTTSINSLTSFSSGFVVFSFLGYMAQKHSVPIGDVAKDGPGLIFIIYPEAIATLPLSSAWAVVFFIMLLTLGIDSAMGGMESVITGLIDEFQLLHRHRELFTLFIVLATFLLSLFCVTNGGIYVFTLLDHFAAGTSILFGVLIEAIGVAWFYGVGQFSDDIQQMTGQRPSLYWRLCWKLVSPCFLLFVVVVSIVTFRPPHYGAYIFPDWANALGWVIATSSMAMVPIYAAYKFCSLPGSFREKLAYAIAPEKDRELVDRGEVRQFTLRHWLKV

C[N+](C)(C)CCO [Choline]
Hill coefficient (h) (human DAT): 1.4 ± 0.2 | IC50 (human DAT; [3]): 37000 µM and 36600 µM

O=C(O)[C@H](O)[C@@H](O)[C@H](O)[C@H](O)CO [Gluconate]
Hill coefficient (h) (human DAT; [3]): 1.2 ± 0.3 | IC50 (human DAT; [3]): 1400 ± 200 µM

O=S(=O)(O)CCO [Isethionate]
Hill coefficient (h) (human DAT; [3]): 0.8 ± 0.2 | IC50 (human DAT; [3]): 3300 ± 600 µM | reduction of the binding of a DAT inhibitor, mazindol (DAT [1]): more than 50%

CNC[C@H](O)[C@H](O)[C@H](O)[C@H](O)CO [NMDG]
Hill coefficient (h) (human DAT; [3]): 11 and 10.6 ± 3.8 | IC50 (human DAT; [3]): 3700 ± 200 µM

CNCCC(Oc1ccccc1OC)c1ccccc1 (stereo not drawn) [Nisoxetine]
IC50 (SERT; [4]): […] | IC50 (NET; [4]): 0.0053 µM | IC50 (DAT [2]; [4]): […]
